Measurements taken from PubChem BioAssay AID1259411 (Chemical Carcinogenesis Research Information System (CCRIS), 2018).
Active and inactive are the calls of the source. No rule for the calls is given here.

Tested on: rodent carcinogenicity bioassays, tumor incidence
Experiment: CCRIS carcinogenicity studies
How it was run: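 NCI-built, expert-reviewed records of carcinogenicity and related test outcomes (mutagenicity, tumor promotion/inhibition) compiled from published and report sources, historical span 1985-2011, not updated.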

`ON=C1CCCC1` was tested, and the carcinogen call (Species: RAT, Strain/Sex: F344/MALE, Route: GAVAGE, Dose: 0, 2 MMOL/KG BW 1/WK FOR 50 WK (STUDY DURATION: 83 WK)) was “inactive; negative”.

For `CCCCN(N=O)C(=O)CCC`, the carcinogen call (Species: RAT, Strain/Sex: F344/MALE,FEMALE, Route: SUBCUTANEOUS, Dose: 38 UMOL/KG IN OLIVE OIL 1/WK FOR 10 WK, Tumor Site: Type of Lesion: INJECTION SITE: MALIGNANT FIBROUS HISTIOCYTOMA, LUNG: ADENOMA) was “active; positive”.

In the case of `CCCCCCCCCc1ccc(OCCO)cc1`, the carcinogen call (Species: MOUSE, Strain/Sex: B6C3F1/FEMALE, Route: ORAL, Dose: 0, 500, 1500, 4500 PPM IN DIET FOR 104 WK (STUDY DURATION: 104 WK), Dose: 0, 500, 1500, 4500 PPM IN DIET FOR 104 WK (STUDY DURATION: 104 WK)) is reported as “inactive; negative” and the carcinogen call (Species: RAT, Strain/Sex: F344/FEMALE, Route: ORAL, Dose: 0, 1000, 3000, 9000 PPM IN DIET FOR 104 WK (STUDY DURATION: 104 WK), Dose: 0, 1000, 3000, 9000 PPM IN DIET FOR 104 WK (STUDY DURATION: 104 WK)) is reported as “inactive; negative”.

`O=P1(N(CCCl)CCCl)NCCCO1` (stereo not given) was tested, and the carcinogen call (Species: FISH, Strain/Sex: SHASTA RAINBOW TROUT/MALE, FEMALE, Route: ORAL, Dose: 0, 200 PPM IN DIET FOR 18 MO (STUDY DURATION: 18 MO)) was “inactive; negative”, the carcinogen call (Species: HUMAN, Route: ORAL, Tumor Site: Type of Lesion: URINARY BLADDER) was “active; positive” and the carcinogen call (Species: MOUSE, Strain/Sex: NMRI/FEMALE, Route: SUBCUTANEOUS, Dose: 0, 13, 26 MG/KG IN SALINE 1/WK FOR LIFETIME (STUDY DURATION: LIFETIME), Dose: 0, 13, 26 MG/KG IN SALINE 1/WK FOR LIFETIME (STUDY DURATION: LIFETIME), Tumor Site: Type of Lesion: LYMPHATIC SYSTEM: MALIGNANT LEUKEMIA) was “active; positive”. For the same compound, the carcinogen call (Species: MOUSE, Strain/Sex: NMRI/FEMALE, Route: SUBCUTANEOUS, Dose: 26 MG/KG 1/WK FOR 52 WK, Tumor Site: Type of Lesion: MAMMARY GLAND: CARCINOMA, MULTIPLE SITES: CARCINOMA, SARCOMA) was “active; positive”, the carcinogen call (Species: RAT, Strain/Sex: BR46/MALE, Route: INTRAVENOUS, Dose: 15 MG/KG 1/WK OR 5 DOSES OF 33 MG/KG EVERY 2 WK, Tumor Site: Type of Lesion: MULTIPLE SITES) was “active; positive” and the carcinogen call (Species: RAT, Strain/Sex: SPRAGUE-DAWLEY/MALE,FEMALE, Route: ORAL, Dose: 0.31, 0.63, 1.25, 2.5 MG/KG 5/WK, Dose: 0.31, 0.63, 1.25, 2.5 MG/KG 5/WK, Tumor Site: Type of Lesion: URINARY BLADDER: PAPILLOMA, TRANSITIONAL CELL CARCINOMA) was “active; positive”. The carcinogen call (Species: RAT, Strain/Sex: SPRAGUE-DAWLEY/MALE, Route: INTRAVENOUS, Dose: 13 MG/KG 1/WK, Tumor Site: Type of Lesion: MULTIPLE SITES) was “active; positive”.

`C=CC(=O)OC` was tested, and the carcinogen call (Species: RAT, Strain/Sex: SPRAGUE-DAWLEY/FEMALE, Route: INHALATION, Dose: 0, 15, 45, 135 PPM 6 HR/D 5 D/WK FOR 24 MO (STUDY DURATION: 130 WK), Dose: 0, 15, 45, 135 PPM 6 HR/D 5 D/WK FOR 24 MO (STUDY DURATION: 130 WK)) was “inactive; negative” and the carcinogen call (Species: RAT, Strain/Sex: SPRAGUE-DAWLEY/MALE, Route: INHALATION, Dose: 0, 15, 45, 135 PPM 6 HR/D 5 D/WK FOR 24 MO (STUDY DURATION: 130 WK), Dose: 0, 15, 45, 135 PPM 6 HR/D 5 D/WK FOR 24 MO (STUDY DURATION: 130 WK)) was “inactive; negative”.

With `O=C(OOC(=O)c1ccccc1)c1ccccc1` the carcinogen call (Species: MOUSE, Strain/Sex: SENCAR/FEMALE, Route: DERMAL, Dose: 0, 0.2 ML OF 100 MG/ML SOLUTION IN ACETONE 2 D/WK FOR 51 WK (STUDY DURATION: 52 WK), Tumor Site: Type of Lesion: SKIN: SQUAMOUS CELL CARCINOMA OR EPIDERMAL HYPERPLASIA) was “active; positive”.

`Clc1ccc(Cl)c(-c2cc(Cl)ccc2Cl)c1` was tested, and the carcinogen call (Species: MOUSE, Strain/Sex: STRAIN-A/FEMALE, Route: INTRAPERITONEAL, Dose: 0, 0.1, 0.2 UMOL/UL OF DMSO 5, 10 AND 20 µL GIVEN ON DAYS 4, 8 AND 15 AFTER BIRTH, RESPECTIVELY (STUDY DURATION: 28 WK), Dose: 0, 0.1, 0.2 UMOL/UL OF DMSO 5, 10 AND 20 µL GIVEN ON DAYS 4, 8 AND 15 AFTER BIRTH, RESPECTIVELY (STUDY DURATION: 28 WK)) was “inactive; negative” and the carcinogen call (Species: MOUSE, Strain/Sex: STRAIN-A/MALE, Route: INTRAPERITONEAL, Dose: 0, 0.1, 0.2 UMOL/UL OF DMSO 5, 10 AND 20 µL GIVEN ON DAYS 4, 8 AND 15 AFTER BIRTH, RESPECTIVELY (STUDY DURATION: 28 WK), Dose: 0, 0.1, 0.2 UMOL/UL OF DMSO 5, 10 AND 20 µL GIVEN ON DAYS 4, 8 AND 15 AFTER BIRTH, RESPECTIVELY (STUDY DURATION: 28 WK)) was “inactive; negative”.

`CC(Cl)CCl` (stereo not given) was tested, and the carcinogen call (Species: MOUSE, Strain/Sex: B6C3F1/FEMALE, Route: GAVAGE, Dose: 0, 125, 250 MG/KG IN CORN OIL 5 D/WK FOR 103 WK (STUDY DURATION: 104 WK), Dose: 0, 125, 250 MG/KG IN CORN OIL 5 D/WK FOR 103 WK (STUDY DURATION: 104 WK), Tumor Site: Type of Lesion: LIVER: ADENOMA, ADENOMA OR CARCINOMA) was “active; positive”, the carcinogen call (Species: MOUSE, Strain/Sex: B6C3F1/MALE, Route: GAVAGE, Dose: 0, 125, 250 MG/KG IN CORN OIL 5 D/WK FOR 103 WK (STUDY DURATION: 104 WK), Dose: 0, 125, 250 MG/KG IN CORN OIL 5 D/WK FOR 103 WK (STUDY DURATION: 104 WK), Tumor Site: Type of Lesion: LIVER: ADENOMA, ADENOMA OR CARCINOMA) was “active; positive” and the carcinogen call (Species: RAT, Strain/Sex: F344/FEMALE, Route: GAVAGE, Dose: 0, 125, 150 MG/KG IN CORN OIL 5 D/WK FOR 103 WK (STUDY DURATION: 104 WK), Dose: 0, 125, 150 MG/KG IN CORN OIL 5 D/WK FOR 103 WK (STUDY DURATION: 104 WK), Tumor Site: Type of Lesion: MAMMARY GLAND: ADENOCARCINOMA) was “equivocal”. The carcinogen call (Species: RAT, Strain/Sex: F344/MALE, Route: GAVAGE, Dose: 0, 62, 125 MG/KG IN CORN OIL 5 D/WK FOR 103 WK (STUDY DURATION: 104 WK), Dose: 0, 62, 125 MG/KG IN CORN OIL 5 D/WK FOR 103 WK (STUDY DURATION: 104 WK)) was “inactive; negative”.

`O=c1c(-c2ccc(O)cc2)coc2cc(O)cc(O)c12` was tested, and the carcinogen call (Species: Rat, Strain/Sex: Sprague-Dawley/Female (50/Group), Route: Oral, Dose: During pregnancy, ingested doses for dams were ~0, 0.5, 9, and 45 mg/kg bw/day. During lactation, ingested doses for dam) was “inactive; negative”, the carcinogen call (Species: Rat, Strain/Sex: Sprague-Dawley/Female (50/Group), Route: Oral, Dose: During pregnancy, ingested doses for dams were ~0, 0.5, 9, and 45 mg/kg bw/day. During lactation, ingested doses for dam, Tumor Site: Type of Lesion: Mammary gland: adenoma and adenocarcinoma combined (13.2%, 16.3%, 22.0%, 26.0%)) was “inactive; negative. positive trend but results do not reach statistical significance (ntp” and the carcinogen call (Species: Rat, Strain/Sex: Sprague-Dawley/Female (50/Group), Route: Oral, Dose: During pregnancy, ingested doses for dams were ~0, 0.5, 9, and 45 mg/kg bw/day. During lactation, ingested doses for dam, Tumor Site: Type of Lesion: Mammary gland: adenoma and adenocarcinoma combined (16.7%, 8.0%, 16.0%, 32.7%) Pituitary gland: neoplasms (70.4%, 80.0%) was “inactive; positive but at 2 lower doses, there was a negative trend for the mammary tumors”. For the same compound, the carcinogen call (Species: Rat, Strain/Sex: Sprague-Dawley/Female (50/Group), Route: Oral, Dose: During pregnancy, ingested doses for dams were ~0, 0.5, 9, and 45 mg/kg bw/day. During lactation, ingested doses for dam, Tumor Site: Type of Lesion: Pituitary gland: adenoma and carcinoma combined (Overall rate 70.4%, 65.3%, 80.0%, 88.0%)) was “inactive; negative (ntp describes as equivocal)” and the carcinogen call (Species: Rat, Strain/Sex: Sprague-Dawley/Male (50/Group), Route: Oral, Dose: During pregnancy, ingested doses for dams were ~0, 0.5, 9, and 45 mg/kg bw/day. During lactation, ingested doses for dam) was “inactive; negative”.
